# Results as given in patent publication US6413764B1, “Human metabotropic glutamate receptors, nucleic acids encoding same and uses thereof” (Merck & Co., Inc., priority 1993, dated 2002).
# Where two headings read alike, the source gives them in different places.
# Key:
# human mGluR5a receptor [1] = target: T1, human mGluR5a receptor (Homo sapiens, UniProt P41594); assay: Phosphatidylinositol hydrolysis (IP1) assay in HEK 293 cells transiently transfected with mGluR5a3; type: cell-based; parameters: expressed in transfected cells; host or cells: HEK 293 cells, transient CaPO4 transfection
# T1 sequence (P41594 21-1180 isoform P41594-2 limits assumed): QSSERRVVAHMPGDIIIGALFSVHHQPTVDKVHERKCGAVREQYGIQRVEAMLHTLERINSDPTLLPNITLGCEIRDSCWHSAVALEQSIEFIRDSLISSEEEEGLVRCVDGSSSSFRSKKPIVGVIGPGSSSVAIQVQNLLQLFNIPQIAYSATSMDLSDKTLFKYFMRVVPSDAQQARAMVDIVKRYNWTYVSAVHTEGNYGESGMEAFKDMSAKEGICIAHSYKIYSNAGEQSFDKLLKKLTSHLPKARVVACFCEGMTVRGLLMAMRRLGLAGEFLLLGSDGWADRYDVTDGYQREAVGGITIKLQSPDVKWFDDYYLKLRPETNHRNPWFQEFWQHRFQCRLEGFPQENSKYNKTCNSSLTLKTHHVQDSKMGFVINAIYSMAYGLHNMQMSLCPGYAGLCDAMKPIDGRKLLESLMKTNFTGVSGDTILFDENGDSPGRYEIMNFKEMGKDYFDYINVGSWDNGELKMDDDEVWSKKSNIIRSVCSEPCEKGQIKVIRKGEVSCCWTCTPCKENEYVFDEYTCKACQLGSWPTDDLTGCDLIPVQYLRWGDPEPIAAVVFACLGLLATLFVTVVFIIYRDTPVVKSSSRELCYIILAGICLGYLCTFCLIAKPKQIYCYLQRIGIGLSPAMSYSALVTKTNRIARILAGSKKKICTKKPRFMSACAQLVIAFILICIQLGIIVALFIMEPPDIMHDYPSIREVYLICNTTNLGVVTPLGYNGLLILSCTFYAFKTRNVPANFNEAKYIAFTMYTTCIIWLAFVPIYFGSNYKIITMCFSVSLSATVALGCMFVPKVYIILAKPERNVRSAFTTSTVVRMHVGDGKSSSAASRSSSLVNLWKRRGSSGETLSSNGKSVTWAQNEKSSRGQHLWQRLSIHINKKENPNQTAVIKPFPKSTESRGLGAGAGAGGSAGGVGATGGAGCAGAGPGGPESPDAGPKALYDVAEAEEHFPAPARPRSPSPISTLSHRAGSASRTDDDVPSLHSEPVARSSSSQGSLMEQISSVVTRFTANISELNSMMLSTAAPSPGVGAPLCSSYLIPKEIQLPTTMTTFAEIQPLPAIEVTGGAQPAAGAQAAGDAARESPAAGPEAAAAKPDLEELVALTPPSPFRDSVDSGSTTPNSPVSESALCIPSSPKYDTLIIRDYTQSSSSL
# Method: HEK 293 cells that had been transiently transfected with mGluR5a3 were plated in 24-well microtiter plates at a density of 8×10^5 cells/well. After the cells were allowed to settle and adhere to the bottom of the plate for a few hours, 2 μCi of [^3H]-myo-inositol (Amersham catalog # PT6-271, Arlington Heights, Ill.; specific activity=17.7 Ci/mmol) was added to each well and incubated overnight at 37° C. The next day, the cells were examined under a Nikon Diaphot inverted microscope to assess the health of the cells morphologically as well as to determine if the wells contained a confluent layer of cells. Media was then aspirated and the cells were washed twice with 0.5 ml Krebs bicarbonate buffer [117.9 mM NaCl, 4.72 mM KCl, 2.54 mM CaCl2, 1.18 mM MgSO4, 1.19 mM KH2PO4, 25 mM NaHCO3, 11.1 mM dextrose (equilibrated with 95% O2, 5% CO2, pH 7.4)]. The cells were incubated for 45 min. at room temperature. The buffer was then aspirated from each well and the cells were washed and incubated in 0.5 ml/well for 45 min at room temperature. The buffer was aspirated from each well, and the cells were then incubated for 20 min at 37° C. with 450 μl Krebs-bicarbonate buffer containing 10 mM LiCl instead of 10 mM NaCl (to block hydrolysis of IP1 to inositol and inorganic phosphate) and 10 mM unlabeled myo-inositol.
# To begin treatment of the cells with metabotropic receptor-modulating compounds, 50 μl of Krebs-bicarbonate buffer (control) or 10× the final concentration of the compound was added to each well and the incubation was continued for 40 min. Incubation was terminated by addition of 1 ml ice-cold methanol to each well.
# In order to isolate IP1 from the cells, the cells were removed from the plates by scraping with plastic pipette tips, and the cell suspension was transferred to 12×75 mm glass tubes. The tubes were thoroughly vortexed, and a 150-μl aliquot, i.e., one-tenth of the total volume, of each reaction mixture was transferred to another tube for protein determination. The water-soluble inositol phosphates were separated from the radiolabelled membrane phospholipids by extraction in 1 ml chloroform. The tubes were incubated at room temperature for 30 min before centrifugation at 500×g for 5 min at 4° C. The aqueous (top) layer containing the [^3H]-inositol phosphates was transferred to 10-ml syringes connected to Accell QMA SEP-PAK columns (Millipore; Calif.), which were attached to an Amersham Superseparator apparatus that was modified to allow collection into 20-ml scintillation vials. Water (10 ml) was added to the cartridge to remove [^3H]-inositol precursor, followed by 4 ml 0.02 M triethylammonium hydrogen carbonated buffer (TEAB, Fluka; N.Y.). To separately remove [^3H]-IP1, [^3H]-IP2 and [^3H]-IP3 from the cartridge, 4 ml of 0.1 M TEAB, 4 ml of 0.3 M TEAB and 4 ml of 0.4 M TEAB were sequentially added to the cartridge and the separate eluate fractions were collected in large scintillation vials. Ecolume cocktail (15 ml; ICN; California) was added to each vial for subsequent scintillation counting to determine the amount of each IP in the separate fractions. Protein concentration was determined using the Bio-Rad Protein Micro-Assay (Bio-Rad, Richmond, Calif.).
# human mGluR5a receptor [2] = target: T1, human mGluR5a receptor; assay: Automated fluorescence assay (fluo-3) in transiently transfected HEK 293 cells; type: cell-based; parameters: expressed in transfected cells; host or cells: HEK 293 cells, transient CaPO4 transfection
# Method: HEK 293 cells were transiently transfected with DNA encoding mGluR5a (constructs mGluR5a2 and mGluR5a3 and construct MMTV-hmGluR5a) receptors. Approximately 2×10^6 HEK cells were transiently transfected with 5-18 μg (or 0.18 μg in some transfections, see Example 3.C.2.) of the indicated plasmid according to standard CaPO4 transfection procedures [see Wigler et al. (1979) Proc. Natl. Acad. Sci. USA 76:1373-1376]. In addition, 0.5-2 μg (or 0.18 μg in some transfections, see Example 3.C.2) of plasmid pCMVβgal (Clontech Laboratories, Palo Alto, Calif.), which contains the Escherichia coli β-galactosidase gene fused to the CMV promoter, were co-transfected as a reporter gene for monitoring the efficiency of transfection. The transfectants were analyzed for β-galactosidase expression by direct staining of the product of a reaction involving β-galactosidase and the X-gal substrate [Jones (1986) EMBO 5:3133-3142]. Transfectants can also be analyzed for β-galactosidase expression by measurement of β-galactosidase activity [Miller (1972) in Experiments in Molecular Genetics, pp.352-355, Cold Spring Harbor Press].
# HEK 293 cells that were transiently transfected with 5 μg of MMTV-hmGluR5A were co-transfected with 5 μg of pRShGR (ATCC accession no. 67200) which contains DNA encoding a glucocorticoid receptor operatively linked to the Rous Sarcoma virus (RSV) LTR promoter. Co-expression of glucocorticoid receptors in these cells should insure that induction of expression of the MMTV promoter-mGluR5a DNA occurs upon addition of glucocorticoid (e.g., dexamethasone) to the cells.
# Untransfected HEK 293 cells (or HEK 293 cells transiently transfected with pCMV-T7-3) and HEK 293 cells that had been transfected with mGluR5a-encoding DNA were plated in the wells of a 96-well microtiter dish (Nunc Catalog No. 1-6708, distributed by Alameda Industries, Escondido, Calif.) that had been precoated with poly-L-lysine at a density of 2×10^5 cells/well and loaded with fluo-3 by incubation for 2 hours at 20° C. in a medium containing 20 μM fluo-3, 0.2% Pluronic F-127 in HBS (125 mM NaCl, 5 mM KCl, 1.8 mM CaCl2, 0.62 MM MgCl2, 20 mM glucose, 20 mM HEPES, pH 7.4). The cells were then washed with assay buffer (i.e. HBS). The microtiter dish was then placed into a fluorescence plate reader (e.g., Fluoroskan II, Lab Products International, Ltd., Raleigh, N.C.), and the basal fluorescence of each well was measured and recorded before addition of metabotropic receptor-modulating compounds such as quisqualate, glutamate, trans-ACPD (1-amino-cyclopentane-1,3-dicarboxylic acid), 1S,3R-ACPD, AP3 (2-amino-3-phosphonopropionate) AP5 (2-amino-5-phosphonopentanoate), and CNQX (6-cyano-7-nitroquinoxaline-2,3-dione) to the wells. The fluorescence of the wells was monitored repeatedly (75 readings at 0.63-sec intervals) following addition of agonist.
# [3] = 1 mM, HEK 293 transfected with 0.18 μg of mGluR5a3
# [4] = varying amounts of compound, cells transfected with mGluR5a3
# [5] = HEK 293 transiently transfected with mGluR5a3 or MMTV-hmGluR5a, fluo-3
# [6] = cells transfected with mGluR5a3, varying amounts of compound
SMILES,IP1 levels on treatment with compound (human mGluR5a receptor [1]; [3]),dose-response of IP1 levels (human mGluR5a receptor [1]; [4]),fluorescence change in response to application of compound (human mGluR5a receptor [2]; [5]),dose-response of peak fluorescence (human mGluR5a receptor [2]; [6]),IP1 levels on treatment with compound (human mGluR5a receptor [1]),dose-response of IP1 levels (human mGluR5a receptor [1]),dose-response of peak fluorescence (human mGluR5a receptor [2]),fluorescence change in response to application of compound (human mGluR5a receptor [2]),fluorescence change in response to compound (human mGluR5a receptor [2])
"NC1(C(=O)O)CCC(C(=O)O)C1 (stereo not drawn) [1S,3R-ACPD, 1-amino-cyclopentyl-1,3-dicarboxylic acid]",detectable increases in IP1 levels,IP1 levels increased with increasing concentration,increased,magnitude of the peak fluorescence increased with increasing concentration,,,,,
N[C@@H](CCC(=O)O)C(=O)O [glutamate],detectable increases in IP1 levels,IP1 levels increased with increasing concentration,increased,magnitude of the peak fluorescence increased with increasing concentration,,,,,
N[C@@H](Cn1oc(=O)[nH]c1=O)C(=O)O [quisqualate],,,,,detectable increases in IP1 levels,IP1 levels increased with increasing concentration,magnitude of the peak fluorescence increased with increasing concentration,increased,increased
